Results reported in patent US11072575B1, “Method of preparing a cinnamyl alcohol retinoic acid ester with antioxidant and antibacterial activities” (priority 2020, dated 2021).

Key:
[1] = DPPH radical scavenging activity assay; details: for DPPH clearance rate: 30 min, 517 nm, n = 3
Source text: In the DPPH molecule, due to the presence of multiple electron-withdrawing —NO2 and large π bonds of the benzene ring, nitrogen free radical is stabilized. Its methanol solution is purple and has a maximum absorption peak at 517 nm. After the addition of an antioxidant, DPPH captures an electron to be paired with the free electron, and the purple fades and turns into a yellow substance. The absorption at 517 nm disappears, and the degree of fading is quantitatively related to the number of electrons it captures. Based on this principle, a spectrophotometer is used to detect the change of the absorbance of the DPPH radical and the sample solution, and the ability of the sample to provide hydrogen atoms and scavenge free radicals can be measured. […] Vc (positive control), cinnamyl alcohol retinoic acid ester (sample), cinnamyl alcohol (control) and retinoic acid (control). The sample solution was subjected to gradient dilution with toluene, and three sets of controls were separately dissolved in a test tube with a certain amount of toluene to prepare the same concentration gradient as the sample. [table] […] Clearance calculation: Clearance Rate (%)=[1−(Ai−Aj)/Ao]*100%

[2] = tested on: Multi-resistant Staphylococcus aureus 18-596; test: Paper diffusion drug sensitivity test, multi-resistant Staphylococcus aureus 18-596; details: for Zone of inhibition: drug sensitive paper 6.35 mm, test drugs 30 μg/tablet, 37° C. 24 h; for Antibacterial effect (in words): summary of Table 4
[3] = tested on: Multi-resistant Pseudomonas aeruginosa 18-202; test: Paper diffusion drug sensitivity test, multi-resistant Pseudomonas aeruginosa 18-202; details: for Zone of inhibition: drug sensitive paper 6.35 mm, test drugs 30 μg/tablet, 37° C. 24 h; for Antibacterial effect (in words): summary of Table 4

Molecule	DPPH clearance rate ([1]; 1.76 ppm in toluene)	DPPH clearance rate ([1]; 8.80 ppm in toluene)	DPPH clearance rate ([1]; 21.12 ppm in toluene)	DPPH clearance rate ([1]; 42.24 ppm in toluene)	DPPH clearance rate ([1]; 79.20 ppm in toluene)	DPPH clearance rate ([1]; 112.64 ppm in toluene)	DPPH clearance rate ([1]; 281.60 ppm in toluene)	DPPH clearance rate ([1]; 492.80 ppm in toluene)	DPPH clearance rate ([1]; 792.00 ppm in toluene)	DPPH clearance rate ([1]; 915.20 ppm in toluene)	Antioxidant activity (in words) ([1]; summary)	Zone of inhibition [2]	Antibacterial effect (in words) [2]	Zone of inhibition [3]	Antibacterial effect (in words) [3]
CC1=C(/C=C/C(C)=C/C=C/C(C)=C/C(=O)OC/C=C/c2ccccc2)C(C)(C)CCC1 [Cinnamyl alcohol retinoic acid ester, (2E,4E,6E,8E)-cinnamyl 3,7-dimethyl-9-(2,6,6-trimethylcyclohex-1-en-1-yl)nona-2,4,6,8-tetraenoate]	13.16%	17.53%	31.95%	42.08%	68.62%	75.46%	79.44%	83.15%	90.77%	95.43%	excellent antioxidant activity	20 mm	strong resistance	21 mm	strong resistance
OCC=Cc1ccccc1 [Cinnamyl alcohol, cinnamyl alcohol]	6.89%	7.95%	17.86%	25.71%	37.96%	44.56%	59.23%	64.94%	73.54%	75.82%		14 mm	little inhibitory effect	6 mm	little inhibitory effect
CC1=C(/C=C/C(C)=C/C=C/C(C)=C/C(=O)O)C(C)(C)CCC1 [Retinoic acid, retinoic acid]												8 mm		7 mm	
CN[C@H](CC(C)C)C(=O)N[C@H]1C(=O)N[C@@H](CC(N)=O)C(=O)N[C@H]2C(=O)N[C@H]3C(=O)N[C@H](C(=O)N[C@H](C(=O)O)c4cc(O)cc(O)c4-c4cc3ccc4O)[C@H](O)c3ccc(c(Cl)c3)Oc3cc2cc(c3O[C@@H]2O[C@H](CO)[C@@H](O)[C@H](O)[C@H]2O[C@H]2C[C@](C)(N)[C@H](O)[C@H](C)O2)Oc2ccc(cc2Cl)[C@H]1O [Vancomycin]												21 mm		9 mm	
O=C1O[C@H]([C@@H](O)CO)C(O)=C1O [Vc]	23.16%	33.47%	79.63%	89.55%	97.42%	97.53%	98.29%	99.06%	99.10%	99.28%					
Gentamicin												10 mm		21 mm	
